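Method: 48-hour compound exposure of cells in 96-well plates, five concentrations, linear interpolation of endpoints. The concentration for 50% growth inhibition is given as GI50.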 Activity calls are given as the source filed them. Rule as the data show it: active = GI50 up to about 1.1 µM and inactive = higher.
Assays:
Test in all cases: DTP human tumour cell line panel, 48 h
[1] = system: 786-0
[2] = system: A498
[3] = system: A549
[4] = system: ACHN
[5] = system: CAKI-1
[6] = system: CCRF-CEM
[7] = system: COLO 205
[8] = system: DLD-1
[9] = system: DMS-114
[10] = system: DMS-273
[11] = system: EKVX
[12] = system: HCC 2998
[13] = system: HCT-116
[14] = system: HCT-15
[15] = system: HL-60
[16] = system: HOP-18
[17] = system: HOP-62
[18] = system: HOP-92
[19] = system: HT-29
[20] = system: IGROV-1
[21] = system: K562
[22] = system: KM-20L2
[23] = system: KM12
[24] = system: LOX IMVI
[25] = system: LXFL 529
[26] = system: M14
[27] = system: M19-MEL
[28] = system: MOLT-4
[29] = system: Malme-3M
[30] = system: NCI-H23
[31] = system: NCI-H460
[32] = system: NCI-H522
[33] = system: OVCAR-3
[34] = system: OVCAR-4
[35] = system: OVCAR-5
[36] = system: OVCAR-8
[37] = system: RPMI-8226
[38] = system: RXF 393
[39] = system: SF-268
[40] = system: SF-295
[41] = system: SF-539
[42] = system: SK-MEL-2
[43] = system: SK-MEL-5
[44] = system: SK-OV-3
[45] = system: SN12C
[46] = system: SNB-19
[47] = system: SNB-75
[48] = system: SNB-78
[49] = system: SR
[50] = system: SW-620
[51] = system: TK-10
[52] = system: U-251
[53] = system: UACC-257
[54] = system: UACC-62
[55] = system: UO-31
[56] = system: XF498
[57] = system: RXF 631
[58] = system: SK-MEL-28

COc1c(OC)c(N)c2cc(C)c(=O)c(C)cc2c1N
GI50 [1]: 64.7 µM (inactive) | GI50 [2]: > 100 µM (inactive) | GI50 [3]: > 100 µM (inactive) | GI50 [4]: > 100 µM (inactive) | GI50 [5]: > 100 µM (inactive) | GI50 [6]: 41.9 µM (inactive) | GI50 [7]: 35.4 µM (inactive) | GI50 [8]: 55.7 µM (inactive) | GI50 [9]: 50.9 µM (inactive) | GI50 [10]: > 100 µM (inactive) | GI50 [11]: > 100 µM (inactive) | GI50 [12]: > 100 µM (inactive) | GI50 [13]: 97.1 µM (inactive) | GI50 [14]: 99.8 µM | GI50 [15]: > 100 µM (inactive) | GI50 [16]: > 100 µM (inactive) | GI50 [17]: > 100 µM (inactive) | GI50 [18]: > 100 µM (inactive) | GI50 [19]: > 100 µM (inactive) | GI50 [20]: > 100 µM (inactive) | GI50 [21]: > 100 µM (inactive) | GI50 [22]: > 100 µM (inactive) | GI50 [23]: > 100 µM (inactive) | GI50 [24]: 55.2 µM (inactive) | GI50 [25]: 64.9 µM (inactive) | GI50 [26]: > 100 µM (inactive) | GI50 [27]: > 100 µM (inactive) | GI50 [28]: > 100 µM (inactive) | GI50 [29]: > 100 µM (inactive) | GI50 [30]: > 100 µM (inactive) | GI50 [31]: > 100 µM (inactive) | GI50 [32]: 96.8 µM (inactive) | GI50 [33]: > 100 µM (inactive) | GI50 [34]: > 100 µM (inactive) | GI50 [35]: > 100 µM (inactive) | GI50 [36]: > 100 µM (inactive) | GI50 [37]: > 100 µM (inactive) | GI50 [38]: > 100 µM (inactive) | GI50 [39]: > 100 µM (inactive) | GI50 [40]: > 100 µM (inactive) | GI50 [41]: > 100 µM (inactive) | GI50 [42]: > 100 µM (inactive) | GI50 [43]: > 100 µM (inactive) | GI50 [44]: > 100 µM (inactive) | GI50 [45]: > 100 µM (inactive) | GI50 [46]: > 100 µM (inactive) | GI50 [47]: 56.4 µM (inactive) | GI50 [48]: > 100 µM (inactive) | GI50 [49]: 12.4 µM (inactive) | GI50 [50]: 18.1 µM (inactive) | GI50 [51]: > 100 µM (inactive) | GI50 [52]: > 100 µM (inactive) | GI50 [53]: > 100 µM (inactive) | GI50 [54]: > 100 µM (inactive) | GI50 [55]: > 100 µM (inactive) | GI50 [56]: > 100 µM (inactive)

O=C(NO)c1coc2ccccc2c1=O
GI50 [2]: 43.2 µM (inactive) | GI50 [3]: > 100 µM (inactive) | GI50 [4]: 23.7 µM (inactive) | GI50 [5]: 8.26 µM (inactive) | GI50 [6]: > 100 µM (inactive) | GI50 [7]: 39.4 µM (inactive) | GI50 [8]: > 100 µM (inactive) | GI50 [9]: 82 µM (inactive) | GI50 [10]: > 100 µM (inactive) | GI50 [11]: > 100 µM (inactive) | GI50 [12]: 32.7 µM (inactive) | GI50 [14]: > 100 µM | GI50 [15]: 75.2 µM (inactive) | GI50 [19]: > 100 µM (inactive) | GI50 [20]: > 100 µM (inactive) | GI50 [21]: > 100 µM (inactive) | GI50 [22]: > 100 µM (inactive) | GI50 [23]: > 100 µM (inactive) | GI50 [24]: > 100 µM (inactive) | GI50 [25]: > 100 µM (inactive) | GI50 [26]: 67.9 µM (inactive) | GI50 [28]: > 100 µM (inactive) | GI50 [29]: 88.9 µM (inactive) | GI50 [30]: > 100 µM (inactive) | GI50 [32]: > 100 µM (inactive) | GI50 [34]: > 100 µM (inactive) | GI50 [35]: > 100 µM (inactive) | GI50 [36]: > 100 µM (inactive) | GI50 [37]: > 100 µM (inactive) | GI50 [38]: 72.9 µM (inactive) | GI50 [57]: > 100 µM (inactive) | GI50 [39]: 91.2 µM (inactive) | GI50 [40]: > 100 µM (inactive) | GI50 [41]: 78.5 µM (inactive) | GI50 [58]: > 100 µM (inactive) | GI50 [42]: 74.3 µM (inactive) | GI50 [43]: > 100 µM (inactive) | GI50 [44]: 12.3 µM (inactive) | GI50 [45]: > 100 µM (inactive) | GI50 [46]: 84.9 µM (inactive) | GI50 [47]: 41.9 µM (inactive) | GI50 [48]: > 100 µM (inactive) | GI50 [50]: > 100 µM (inactive) | GI50 [51]: 35.7 µM (inactive) | GI50 [52]: > 100 µM (inactive) | GI50 [53]: > 100 µM (inactive) | GI50 [54]: > 100 µM (inactive) | GI50 [55]: 86.9 µM (inactive)

Source: ChEMBL document CHEMBL1201862, “PubChem BioAssay data set” (2004)
